# According to patent publication US8471024B2, “Tetrahydrofuropyridones” (priority 2008, dated 2013):
# Target: T1, PHD2 (Homo sapiens, UniProt Q9GZT9)
# T1 construct: FLAG-tagged full length PHD2expressed in and purified from baculovirus-infected Sf9 cells; FLAG; made in house; host or cells: baculovirus-infected Sf9 cells
# Test: Assay for HIF-PHD2 Catalytic Activity (time resolved fluorescence, VHL complex detection)
# Type: biochemical
# Conditions: FLAG-tagged full length PHD2; 0.2 μM 2-oxoglutarate, 0.5 μM HIF-1α peptide; read-out: PHD2 Binding Activity IC50
# Procedure: Assay for HIF-PHD2Catalytic Activity To each well of a 96-well plate was added 1 μL of test compound in DMSO and 20 μl of assay buffer (50 mM Tris pH 7.4/0.01% Tween-20/0.1 mg/ml bovine serum albumin/10 μM ferrous sulfate/1mM sodium ascorbate/20 μg/ml catalase) containing 0.15 μg/ml FLAG-tagged full length PHD2expressed in and purified from baculovirus-infected Sf9 cells. After a 30 min preincubation at room temperature, the enzymatic reactions were initiated by the addition of 4 μL of substrates (final concentrations of 0.2 μM 2-oxoglutarate and 0.5 μM HIF-1α peptide biotinyl-DLDLEMLAPYJPMDDDFQL).
# T1 sequence (Q9GZT9 whole entry): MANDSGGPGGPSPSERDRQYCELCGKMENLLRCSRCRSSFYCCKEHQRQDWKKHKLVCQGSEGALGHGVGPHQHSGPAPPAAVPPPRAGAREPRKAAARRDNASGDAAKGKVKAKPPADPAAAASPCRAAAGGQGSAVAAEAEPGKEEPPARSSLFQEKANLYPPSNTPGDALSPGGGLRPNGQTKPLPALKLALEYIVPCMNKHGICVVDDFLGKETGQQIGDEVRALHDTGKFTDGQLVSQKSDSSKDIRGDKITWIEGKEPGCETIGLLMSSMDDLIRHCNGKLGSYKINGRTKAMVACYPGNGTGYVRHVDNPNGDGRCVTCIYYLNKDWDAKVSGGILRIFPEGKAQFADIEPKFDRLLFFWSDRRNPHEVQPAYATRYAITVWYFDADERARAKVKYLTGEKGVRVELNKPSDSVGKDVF
row,SMILES,IC50 [nM]
1,"O=C(O)CNC(=O)c1c(O)c2c(n(Cc3ccc(-c4ccccc4F)nc3)c1=O)COC2 [Example 49, N-[(1-{[6-(2-fluorophenyl)pyridin-3-yl]methyl}-4-hydroxy-2-oxo-1,2,5,7-tetrahydrofuro[3,4-b]pyridin-3-yl)carbonyl]glycine]",< 10
2,O=C(O)CNC(=O)c1c(O)c2c(n(Cc3ccc(-c4ccccc4Cl)nc3)c1=O)COC2 [Example 29],< 10
3,O=C(O)CNC(=O)c1c(O)c2c(n(Cc3ccc(-c4ccc(Cl)cc4)cc3)c1=O)COC2 [Example 30],< 10
4,Cc1cnc(Cn2c3c(c(O)c(C(=O)NCC(=O)O)c2=O)COC3)cn1 [Example 7],< 10
5,"O=C(O)CNC(=O)c1c(O)c2c(n(Cc3ccc(-c4ccc(F)cc4F)nc3)c1=O)COC2 [Example 44, N-[(1-{[6-(2,4-difluorophenyl)pyridin-3-yl]methyl}-4-hydroxy-2-oxo-1,2,5,7-tetrahydrofuro[3,4-b]pyridin-3-yl)carbonyl]glycine]",< 10
6,"Cc1nn(-c2ccccc2)nc1Cn1c2c(c(O)c(C(=O)NCC(=O)O)c1=O)COC2 [Example 21, N-({4-hydroxy-1-[(5-methyl-2-phenyl-2H-1,2,3-triazol-4-yl)methyl]-2-oxo-1,2,5,7-tetrahydrofuro[3,4-b]pyridin-3-yl}carbonyl)glycine]",< 10
7,"Cn1cc(-c2ccc(Cn3c4c(c(O)c(C(=O)NCC(=O)O)c3=O)COC4)cn2)cn1 [Example 43, N-[(4-hydroxy-1-{[6-(1-methyl-1H-pyrazol-4-yl)pyridin-3-yl)methyl}-2-oxo-1,2,5,7-tetrahydrofuro[3,4-b]pyridin-3-yl)carbonyl]glycine]",< 10
8,"O=C(O)CNC(=O)c1c(O)c2c(n(Cc3ccc(-c4cc(F)ccc4F)nc3)c1=O)COC2 [Example 45, N-[(1-{[6-(2,5-difluorophenyl)pyridin-3-yl]methyl}-4-hydroxy-2-oxo-1,2,5,7-tetrahydrofuro[3,4-b]pyridin-3-yl)carbonyl]glycine]",< 10
9,O=C(O)CNC(=O)c1c(O)c2c(n(Cc3ccc(-c4ccccc4OCC(F)(F)F)nc3)c1=O)COC2 [Example 46],< 10
10,"CC1OCc2c1c(O)c(C(=O)NCC(=O)O)c(=O)n2Cc1ccc(C(F)(F)F)cc1 (centres unmarked) [Example 13, N-({4-hydroxy-5-methyl-2-oxo-1-[4-(trifluoromethyl)benzyl]-1,2,5,7-tetrahydrofuro[3,4-b]pyridin-3-yl}carbonyl)glycine]",< 10
11,"O=C(O)CNC(=O)c1c(O)c2c(n(Cc3nc(-c4ccccc4Cl)cs3)c1=O)COC2 [Example 27, N-[(1-{[4-(2-chlorophenyl)-1,3-thiazol-2-yl]methyl)-4-hydroxy-2-oxo-1,2,5,7-tetrahydrofuro[3,4-b]pyridin-3-yl)carbonyl]glycine]",< 10
12,"O=C(O)CNC(=O)c1c(O)c2c(n(Cc3cnc(-c4ccc(F)c(F)c4)cn3)c1=O)COC2 [Example 52, N-[(1-{[5-(3,4-difluorophenyl)pyrazin-2-yl]methyl}-4-hydroxy-2-oxo-1,2,5,7-tetrahydrofuro[3,4-b]pyridin-3-yl)carbonyl]glycine]",< 10
13,"O=C(O)CNC(=O)c1c(O)c2c(n(Cc3cnc(Cl)cn3)c1=O)COC2 [Example 12, N-({1-[(5-chloropyrazin-2-yl)methyl]-4-hydroxy-2-oxo-1,2,5,7-tetrahydrofuro[3,4-b]pyridin-3-yl}carbonyl)glycine]",< 10
14,O=C(O)CNC(=O)c1c(O)c2c(n(Cc3ccc(-c4ccc(F)cc4)cc3)c1=O)COC2 [Example 31],< 10
